The text below walks through data of patent publication US11530210B2, “Substituted heteroaromatic pyrazolo-pyridines and their use as GLUN2B receptor modulators” (JANSSEN PHARMACEUTICA NV, priority 2019, dated 2022).

A value given as a limit tells only on which side of the number the result lay.

For the assay, the target named is T1, human GluN1/GluN2B NMDA receptors (Homo sapiens, UniProt Q13224).
T1 construct: expressed in transfected cells
The assay is described as follows: Calcium flux (FLIPR) assay on cloned human NR1/GluN2B ion channels expressed in mammalian cells (standard and HTS variants). It counts as cell-based. The following applies: cells expressing human GluN1/GluN2B, glutamate and glycine co-agonists. As for the experimental part: Effects of Test Articles on Cloned Human NR1/GuN2B Ion Channels Expressed in Mammalian Cells
NMDA receptors are ion channels that are highly permeable to Ca^2+ ions, rendering it possible to monitor NMDA receptor function using cell-based calcium flux assay. In this assay, co-agonists glutamate and glycine are added to cells heterologously expressing human GluN1/GluN2B NMDA receptors to initiate cellular Ca^2+ influx. The time course of the changes in intracellular calcium is measured using a fluorescent dye and a FLIPR (Fluorometric Imaging Plate Reader) device.
Twenty-four hours before measurements, the expression of the NMDA receptors in the stable cell line is induced with Tet-On inducible system in the presence of a non-selective NMDA receptor blocker. On the day of the experiment, cell culture media is carefully washed, and the cells are loaded with Calcium 5 Dye Kit (Molecular Devices) in dye loading buffer containing 137 mM NaCl, 4 mM KCl, 2 mM CaCl2, 0.5 mM MgCl2 (standard assay) or 1.5 mM MgCl2 (HTS assay), 10 mM HEPES and 5 mM D-glucose; pH 7.4. After 1 h incubation at the room temperature, the dye is washed away with the assay buffer (137 mM NaCl (standard assay) or 150 mM (HTS assay), 4 mM KCl (standard assay) or 3 mM (HTS assay), 2 mM CaCl2), 0.01 mM EDTA, 10 mM HEPES and 5 mM D-glucose; pH 7.4) In the FLIPR TETRA reader, various concentrations of the test compounds are added to the cells for 5 min while fluorescence is monitored to detect potential agonist activity. Next, co-agonists, glutamate and glycine are added for another 5 minutes. The concentration of glutamate corresponding to ˜EC40 (standard assay) or EC40 (HTS assay) is used to maximize the assay's signal window and ability to detect NMDA receptor antagonists and negative allosteric modulators. A saturating concentration (10 μM) of glycine is also present in the assay. A non-selective NMDA receptor antagonist, (+)MK-801 is used as a positive control for antagonist activity. The fluorescent signal in the presence of test compounds is quantified and normalized to the signal defined by the appropriate control wells.
(In general: Calcium flux is commonly read through the fluorescence of an indicator in the cells.)

T1 sequence (Q13224 27-1484, other chains not shown): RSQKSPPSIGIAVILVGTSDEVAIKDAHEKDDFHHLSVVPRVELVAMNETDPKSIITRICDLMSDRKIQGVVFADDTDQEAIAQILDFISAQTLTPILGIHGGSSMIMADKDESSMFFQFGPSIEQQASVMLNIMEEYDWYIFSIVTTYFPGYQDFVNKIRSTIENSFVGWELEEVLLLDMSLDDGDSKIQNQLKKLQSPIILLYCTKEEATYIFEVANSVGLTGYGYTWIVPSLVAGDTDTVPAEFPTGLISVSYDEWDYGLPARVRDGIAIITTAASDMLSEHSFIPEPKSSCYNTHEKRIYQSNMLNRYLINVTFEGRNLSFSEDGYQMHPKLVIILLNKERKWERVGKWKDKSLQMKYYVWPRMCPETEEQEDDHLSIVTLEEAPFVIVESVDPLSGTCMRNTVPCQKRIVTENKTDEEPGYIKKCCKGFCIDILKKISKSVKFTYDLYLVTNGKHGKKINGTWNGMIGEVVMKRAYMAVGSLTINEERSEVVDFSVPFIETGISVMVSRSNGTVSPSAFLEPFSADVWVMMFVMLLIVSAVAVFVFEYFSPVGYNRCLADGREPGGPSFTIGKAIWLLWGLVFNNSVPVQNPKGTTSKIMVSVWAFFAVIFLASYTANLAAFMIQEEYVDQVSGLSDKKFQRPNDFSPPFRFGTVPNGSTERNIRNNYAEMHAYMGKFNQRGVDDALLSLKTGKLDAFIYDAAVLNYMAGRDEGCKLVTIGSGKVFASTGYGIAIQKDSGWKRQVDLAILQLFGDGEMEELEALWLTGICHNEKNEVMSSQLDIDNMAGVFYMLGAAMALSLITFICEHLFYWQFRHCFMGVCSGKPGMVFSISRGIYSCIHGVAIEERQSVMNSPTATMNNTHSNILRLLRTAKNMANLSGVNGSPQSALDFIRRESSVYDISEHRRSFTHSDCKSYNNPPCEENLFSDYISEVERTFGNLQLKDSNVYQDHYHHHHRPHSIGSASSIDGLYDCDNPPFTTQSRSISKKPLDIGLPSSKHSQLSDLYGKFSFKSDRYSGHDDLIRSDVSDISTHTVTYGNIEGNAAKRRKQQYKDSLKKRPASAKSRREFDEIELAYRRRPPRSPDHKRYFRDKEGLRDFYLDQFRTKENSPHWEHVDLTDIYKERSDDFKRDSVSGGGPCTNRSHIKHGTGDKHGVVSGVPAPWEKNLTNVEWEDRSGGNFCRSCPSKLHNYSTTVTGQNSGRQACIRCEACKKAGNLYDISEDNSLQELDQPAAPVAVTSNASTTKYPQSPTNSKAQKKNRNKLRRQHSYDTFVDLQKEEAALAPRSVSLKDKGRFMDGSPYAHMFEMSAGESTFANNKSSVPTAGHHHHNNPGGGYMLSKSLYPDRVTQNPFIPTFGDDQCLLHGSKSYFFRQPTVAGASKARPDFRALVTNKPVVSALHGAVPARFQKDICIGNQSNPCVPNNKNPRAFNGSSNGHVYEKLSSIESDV

By IC50 is commonly meant the concentration needed to halve the response being measured. `Cn1cc(Cn2ncc3ncc(-c4ccc(F)c(OC(F)F)c4)cc32)nn1` [Example 72, 6-[3-(Difluoromethoxy)-4-fluoro-phenyl]-1-[(1-methyltriazol-4-yl)methyl]pyrazolo[4,3-b]pyridine]: the IC50 was found to be 827 nM. Regarding `Cn1cnc(Cn2ncc3ncc(-c4ccc(F)c(C(F)F)c4)cc32)n1` [Example 73, 6-[3-(Difluoromethyl)-4-fluoro-phenyl]-1-[(1-methyl-1,2,4-triazol-3-yl)methyl]pyrazolo[4,3-b]pyridine], the IC50 came out at 383 nM. Turning to `Cn1cnnc1Cn1ncc2ncc(-c3ccc(F)c(C(F)F)c3)cc21` [Example 74, 6-[3-(Difluoromethyl)-4-fluoro-phenyl]-1-[(4-methyl-1,2,4-triazol-3-yl)methyl]pyrazolo[4,3-b]pyridine], the IC50 turned out to be 111 nM.

As for `Cc1nnc(Cn2ncc3ncc(-c4ccc(F)c(C(F)F)c4)cc32)n1C` [Example 75, 6-[3-(Difluoromethyl)-4-fluoro-phenyl]-1-[(4,5-dimethyl-1,2,4-triazol-3-yl)methyl]pyrazolo[4,3-b]pyridine], the IC50 was 139 nM. Turning to `CCc1nnc(Cn2ncc3ncc(-c4ccc(F)c(C(F)F)c4)cc32)n1C` [Example 76, 6-[3-(Difluoromethyl)-4-fluoro-phenyl]-1-[(5-ethyl-4-methyl-1,2,4-triazol-3-yl)methyl]pyrazolo[4,3-b]pyridine], the IC50 is 3830 nM. As to `Cc1nnc(Cn2ncc3ncc(-c4ccc(Cl)s4)cc32)o1` [Example 77, 2-[[6-(5-Chloro-2-thienyl)pyrazolo[4,3-b]pyridin-1-yl]methyl]-5-methyl-1,3,4-oxadiazole], the IC50 turned out to be 89 nM.

On to `Cc1nnc(Cn2ncc3ncc(-c4ccc(C(F)(F)F)s4)cc32)o1` [Example 78, 2-Methyl-5-[[6-[5-(trifluoromethyl)-2-thienyl]pyrazolo[4,3-b]pyridin-1-yl]methyl]-1,3,4-oxadiazole], for which the IC50 stood at 143 nM. With `Cc1nnc(Cn2ncc3ncc(-c4ccc(C(F)F)s4)cc32)o1` [Example 79, 2-[[6-[5-(Difluoromethyl)-2-thienyl]pyrazolo[4,3-b]pyridin-1-yl]methyl]-5-methyl-1,3,4-oxadiazole], the IC50 stood at 153 nM. Turning to `Cc1noc(Cn2ncc3ncc(-c4ccc(F)cc4)cc32)n1` [Example 80, 5-[[6-(4-Fluorophenyl)pyrazolo[4,3-b]pyridin-1-yl]methyl]-3-methyl-1,2,4-oxadiazole], the IC50 turned out to be 957 nM.

As for `COc1cccc(-c2cnc3cnn(Cc4nc(C)no4)c3c2)c1` [Example 81, 5-[[6-(3-Methoxyphenyl)pyrazolo[4,3-b]pyridin-1-yl]methyl]-3-methyl-1,2,4-oxadiazole], the IC50 came out at 2310 nM.

Consider `Cc1nnc(Cn2ncc3ncc(-c4cccc(C(C)(F)F)c4)cc32)o1` [Example 82, 2-[[6-[3-(1,1-Difluoroethyl)phenyl]pyrazolo[4,3-b]pyridin-1-yl]methyl]-5-methyl-1,3,4-oxadiazole], for which the IC50 was determined as 160 nM. The value for `Cc1nnc(Cn2nc(F)c3ncc(-c4cccc(C(C)(F)F)c4)cc32)o1` [Example 83, 2-[[6-[3-(1,1-Difluoroethyl)phenyl]-3-fluoro-pyrazolo[4,3-b]pyridin-1-yl]methyl]-5-methyl-1,3,4-oxadiazole] was 126 nM; that for `Cc1noc(Cn2ncc3ncc(-c4cccc(C(F)(F)F)c4)cc32)n1` [Example 84, 3-Methyl-5-[[6-[3-(trifluoromethyl)phenyl]pyrazolo[4,3-b]pyridin-1-yl]methyl]-1,2,4-oxadiazole] was 293 nM; that for `Cc1nnc(Cn2ncc3ncc(-c4cccc(C(F)(F)F)c4)cc32)o1` [Example 85, 2-Methyl-5-[[6-[3-(trifluoromethyl)phenyl]pyrazolo[4,3-b]pyridin-1-yl]methyl]-1,3,4-oxadiazole] was 143 nM.

With `Cc1nc(Cn2ncc3ncc(-c4cccc(C(F)(F)F)c4)cc32)no1` [Example 86, 5-Methyl-3-[[6-[3-(trifluoromethyl)phenyl]pyrazolo[4,3-b]pyridin-1-yl]methyl]-1,2,4-oxadiazole], the IC50 worked out at 202 nM.

As for `FC(F)(F)c1cccc(-c2cnc3cnn(Cc4ncno4)c3c2)c1` [Example 87, 5-[[6-[3-(Trifluoromethyl)phenyl]pyrazolo[4,3-b]pyridin-1-yl]methyl]-1,2,4-oxadiazole], the IC50 is 383 nM. Regarding `Cc1nnc(Cn2ncc3ncc(-c4ccnc(C(F)(F)F)c4)cc32)o1` [Example 88, 2-Methyl-5-[[6-[2-(trifluoromethyl)-4-pyridyl]pyrazolo[4,3-b]pyridin-1-yl]methyl]-1,3,4-oxadiazole], the IC50 is 467 nM. For `Cc1nnc(Cn2ncc3ncc(-c4ccc(F)c(C)c4)cc32)o1` [Example 89, 2-[[6-(4-Fluoro-3-methyl-phenyl)pyrazolo[4,3-b]pyridin-1-yl]methyl]-5-methyl-1,3,4-oxadiazole], the IC50 is 37 nM. As for `Cc1nnc(Cn2nc(F)c3ncc(-c4ccc(F)c(C)c4)cc32)o1` [Example 90, 2-[[3-Fluoro-6-(4-fluoro-3-methyl-phenyl)pyrazolo[4,3-b]pyridin-1-yl]methyl]-5-methyl-1,3,4-oxadiazole], the IC50 is 33 nM. In the case of `Cc1cc(-c2cnc3cnn(Cc4nnc(C(F)(F)F)o4)c3c2)ccc1F` [Example 91, 2-[[6-(4-Fluoro-3-methyl-phenyl)pyrazolo[4,3-b]pyridin-1-yl]methyl]-5-(trifluoromethyl)-1,3,4-oxadiazole], the IC50 came out at 145 nM. Turning to `Cc1nnc(Cn2ncc3ncc(-c4ccc(F)c(Cl)c4)cc32)o1` [Example 92, 2-[[6-(3-Chloro-4-fluoro-phenyl)pyrazolo[4,3-b]pyridin-1-yl]methyl]-5-methyl-1,3,4-oxadiazole], the IC50 came to 90 nM. Regarding `Cc1nnc(Cn2nc(F)c3ncc(-c4ccc(F)c(Cl)c4)cc32)o1` [Example 93, 2-[[6-(3-Chloro-4-fluoro-phenyl)-3-fluoro-pyrazolo[4,3-b]pyridin-1-yl]methyl]-5-methyl-1,3,4-oxadiazole], the half-maximal inhibitory concentration (IC50) turned out to be 87 nM. Take `Fc1ccc(-c2cnc3cnn(Cc4nnco4)c3c2)cc1C(F)F` [Example 94, 2-[[6-[3-(Difluoromethyl)-4-fluoro-phenyl]pyrazolo[4,3-b]pyridin-1-yl]methyl]-1,3,4-oxadiazole]: the IC50 worked out at 58 nM. In the case of `Cc1noc(Cn2ncc3ncc(-c4ccc(F)c(C(F)F)c4)cc32)n1` [Example 95, 5-[[6-[3-(Difluoromethyl)-4-fluoro-phenyl]pyrazolo[4,3-b]pyridin-1-yl]methyl]-3-methyl-1,2,4-oxadiazole], the IC50 stood at 40 nM. With `Cc1nonc1Cn1ncc2ncc(-c3ccc(F)c(C(F)F)c3)cc21` [Example 98, 3-[[6-[3-(Difluoromethyl)-4-fluoro-phenyl]pyrazolo[4,3-b]pyridin-1-yl]methyl]-4-methyl-1,2,5-oxadiazole], the IC50 is 34 nM. Consider `Fc1ccc(-c2cnc3cnn(Cc4nnc(C5CC5)o4)c3c2)cc1C(F)F` [Example 99, 2-Cyclopropyl-5-[[6-[3-(difluoromethyl)-4-fluoro-phenyl]pyrazolo[4,3-b]pyridin-1-yl]methyl]-1,3,4-oxadiazole], for which the IC50 came to 70 nM. As to `CC(C)c1nnc(Cn2ncc3ncc(-c4ccc(F)c(C(F)F)c4)cc32)o1` [Example 100, 2-[[6-[3-(Difluoromethyl)-4-fluoro-phenyl]pyrazolo[4,3-b]pyridin-1-yl]methyl]-5-isopropyl-1,3,4-oxadiazole], the half-maximal inhibitory concentration (IC50) was found to be 550 nM. As for `CN(C)c1nnc(Cn2ncc3ncc(-c4ccc(F)c(C(F)F)c4)cc32)o1` [Example 101, 5-[[6-[3-(Difluoromethyl)-4-fluoro-phenyl]pyrazolo[4,3-b]pyridin-1-yl]methyl]-N,N-dimethyl-1,3,4-oxadiazol-2-amine], the IC50 was > 2990 nM. `Fc1ccc(-c2cnc3cnn(Cc4nnc(C(F)(F)F)o4)c3c2)cc1C(F)F` [Example 102, 2-[[6-[3-(Difluoromethyl)-4-fluoro-phenyl]pyrazolo[4,3-b]pyridin-1-yl]methyl]-5-(trifluoromethyl)-1,3,4-oxadiazole]: the IC50 was 49 nM. With `Fc1ccc(-c2cnc3cnn(Cc4nnc(-c5ccccc5)o4)c3c2)cc1C(F)F` [Example 103, 2-[[6-[3-(Difluoromethyl)-4-fluoro-phenyl]pyrazolo[4,3-b]pyridin-1-yl]methyl]-5-phenyl-1,3,4-oxadiazole], the IC50 is > 2990 nM. Take `Cc1nnc(Cn2ncc3ncc(-c4ccc(F)c(C(C)(F)F)c4)cc32)o1` [Example 104, 2-[[6-[3-(1,1-Difluoroethyl)-4-fluoro-phenyl]pyrazolo[4,3-b]pyridin-1-yl]methyl]-5-methyl-1,3,4-oxadiazole]: the half-maximal inhibitory concentration (IC50) was 244 nM.
